According to ChEMBL document CHEMBL1201862, “PubChem BioAssay data set” (2004):
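96-well plates; 48 h exposure; 5 concentrations. Endpoints by linear interpolation between flanking doses. Not reached: highest tested concentration assigned. Here, GI50 denotes the concentration required for 50% inhibition of growth.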 Activity calls are given as the source filed them. Cut-off read from the data, not from the text of the source: active = GI50 up to about 1.1 µM and inactive = higher.

Experiments:
Assay in all cases: inhibition of tumour cell growth, NCI panel, 48 h
OVCAR-4 = test system: OVCAR-4
M14 = test system: M14
SK-MEL-5 = test system: SK-MEL-5
CCRF-CEM = test system: CCRF-CEM
DMS-273 = test system: DMS-273
SR = test system: SR
HCC 2998 = test system: HCC 2998
Malme-3M = test system: Malme-3M
OVCAR-5 = test system: OVCAR-5
RXF 393 = test system: RXF 393
K562 = test system: K562
SF-295 = test system: SF-295
SNB-75 = test system: SNB-75
RPMI-8226 = test system: RPMI-8226
COLO 205 = test system: COLO 205
LOX IMVI = test system: LOX IMVI
T47D = test system: T47D
MDA-N = test system: MDA-N
PC-3 = test system: PC-3
NCI/ADR-RES = test system: NCI/ADR-RES

Row | SMILES | GI50 (OVCAR-4) | GI50 (M14) | GI50 (SK-MEL-5) | GI50 (CCRF-CEM) | GI50 (DMS-273) | GI50 (SR) | GI50 (HCC 2998) | GI50 (Malme-3M) | GI50 (OVCAR-5) | GI50 (RXF 393) | GI50 (K562) | GI50 (SF-295) | GI50 (SNB-75) | GI50 (RPMI-8226) | GI50 (COLO 205) | GI50 (LOX IMVI) | GI50 (T47D) | GI50 (MDA-N) | GI50 (PC-3) | GI50 (NCI/ADR-RES)
1 | COC(=O)C1=Cc2c(cc(OC)c(OC)c2OC)[C@H](c2ccc(OC)c(OC)c2OC)C1C(=O)OC (stereo partly drawn) | > 100 µM (inactive) | > 100 µM (inactive) | > 100 µM (inactive) | > 100 µM (inactive) | 29.5 µM (inactive) | 46.7 µM (inactive) | > 100 µM (inactive) | > 100 µM (inactive) | > 100 µM (inactive) | > 100 µM (inactive) | > 100 µM (inactive) | 65.9 µM (inactive) | > 100 µM (inactive) | 89.5 µM (inactive) | 55.7 µM (inactive) | > 100 µM (inactive) | – | – | – | –
2 | CC1OC(OC2C[C@](O)(C(=O)CF)Cc3c(O)c4c(c(O)c32)C(=O)c2ccccc2C4=O)CC(N)C1O (stereo partly drawn) | 0.152 µM (active) | 0.0263 µM (active) | < 0.0113 µM (active) | < 0.01 µM (active) | < 0.01 µM (active) | < 0.01 µM (active) | 0.163 µM (active) | < 0.0109 µM (active) | 0.0719 µM (active) | 0.0637 µM (active) | < 0.0153 µM (active) | < 0.01 µM (active) | 0.0161 µM (active) | < 0.01 µM (active) | 0.0296 µM (active) | < 0.01 µM (active) | 0.0106 µM (active) | 0.108 µM (active) | 0.0275 µM (active) | –
3 | CN(C)c1ccc(C(=C2C=CC(=[N+](C)C)C=C2)c2ccc(N(C)C)cc2)cc1 [GENTIAN VIOLET] | 0.264 µM (active) | 0.163 µM (active) | 0.0809 µM (active) | 0.102 µM (active) | 0.22 µM (active) | 0.211 µM (active) | 0.216 µM (active) | 0.245 µM (active) | 0.202 µM (active) | 0.201 µM (active) | 0.0327 µM (active) | 0.0402 µM (active) | 0.182 µM (active) | 0.0237 µM (active) | 0.189 µM (active) | 0.0379 µM (active) | – | – | – | –
4 | CN(C)c1ccc(C(=C(c2ccc(N(C)C)cc2)c2ccc(N(C)C)cc2)c2ccc(N(C)C)cc2)cc1 | 20.1 µM (inactive) | 6.62 µM (inactive) | 16.3 µM (inactive) | 16.6 µM (inactive) | 15.8 µM (inactive) | 9.04 µM (inactive) | 16 µM (inactive) | 15 µM (inactive) | > 100 µM (inactive) | 11.7 µM (inactive) | 8.09 µM (inactive) | 13.9 µM (inactive) | 13.5 µM (inactive) | 7 µM (inactive) | 0.568 µM (active) | 13.5 µM (inactive) | – | – | – | –
5 | Cc1cc2c(c3oc(C4(C)OC4C4OC4C)cc(=O)c13)C(=O)c1c(O)c(C3CC(C)(N(C)C)C(O)C(C)O3)cc(C3CC(N(C)C)C(O)C(C)O3)c1C2=O (stereo not drawn) | – | 8.26e-05 µM (active) | 0.00112 µM (active) | 0.0025 µM (active) | 0.0025 µM (active) | 6.17e-05 µM (active) | 0.00014 µM (active) | – | 8.95e-05 µM (active) | 0.000104 µM (active) | 0.0025 µM (active) | 4.68e-05 µM (active) | – | 0.000271 µM (active) | 9.53e-05 µM (active) | – | 0.00018 µM (active) | – | 6.52e-05 µM (active) | 0.000118 µM (active)
6 | C=C1C(=O)OC2CC3(C)C=CC(=O)C(=C)C3CC12 (stereo not drawn) | 2.18 µM (inactive) | 1.46 µM (inactive) | 1.72 µM (inactive) | 0.317 µM (active) | 1.22 µM (inactive) | 0.938 µM (active) | 2.6 µM (inactive) | 1.99 µM (inactive) | 3.24 µM (inactive) | 2.03 µM (inactive) | 1.71 µM (inactive) | 13.9 µM (inactive) | 3.73 µM (inactive) | 0.589 µM (active) | 1.63 µM (inactive) | 0.516 µM (active) | – | – | – | –
7 | Oc1ccc2c(O)cc(-c3ccccc3)nc2c1 | 26 µM (inactive) | 19.7 µM (inactive) | 30.1 µM (inactive) | 18.2 µM (inactive) | 28.1 µM (inactive) | 38.1 µM (inactive) | 34 µM (inactive) | 34.4 µM (inactive) | 58.9 µM (inactive) | 6.22 µM (inactive) | 19.2 µM (inactive) | 75 µM (inactive) | 22.1 µM (inactive) | 17.5 µM (inactive) | 17 µM (inactive) | 17.5 µM (inactive) | – | – | – | –
8 | Cc1cccc(C)c1NC(=O)/C(Cl)=C(/Cl)C(=O)O | 18.5 µM (inactive) | 9.29 µM (inactive) | 19.9 µM (inactive) | 2.95 µM (inactive) | 18.6 µM (inactive) | 8.41 µM (inactive) | 18 µM (inactive) | 14.7 µM (inactive) | 20.4 µM (inactive) | 18.8 µM (inactive) | 3.23 µM (inactive) | 29.2 µM (inactive) | 20.2 µM (inactive) | 11 µM (inactive) | 7.11 µM (inactive) | 18.1 µM (inactive) | 27.9 µM (inactive) | 19.2 µM (inactive) | 19.8 µM (inactive) | –
9 | Cc1cccc(C(C)(C)C)c1NC(=O)C(C#N)C1=C(Cl)C(=O)c2ccccc2C1=O (stereo not drawn) | 15.4 µM (inactive) | 18 µM (inactive) | 17 µM (inactive) | 0.843 µM (active) | 17.8 µM (inactive) | 3.38 µM (inactive) | 15.7 µM (inactive) | 17.2 µM (inactive) | 17.9 µM (inactive) | 16.9 µM (inactive) | 3.05 µM (inactive) | 15.9 µM (inactive) | 13.7 µM (inactive) | 8.83 µM (inactive) | 17.5 µM (inactive) | 16.3 µM (inactive) | 9.95 µM (inactive) | 14.4 µM (inactive) | 13.5 µM (inactive) | 16.6 µM (inactive)
10 | Clc1ccc2ns[s+]c2c1 | 22.4 µM (inactive) | 0.222 µM (active) | 15.5 µM (inactive) | 1.27 µM (inactive) | 0.815 µM (active) | 1.34 µM (inactive) | 17.5 µM (inactive) | 32.2 µM (inactive) | 6.58 µM (inactive) | > 100 µM (inactive) | 0.0611 µM (active) | 0.853 µM (active) | > 79.3 µM (inactive) | 1.81 µM (inactive) | 1.79 µM (inactive) | 1.29 µM (inactive) | 11.7 µM (inactive) | 3.4 µM (inactive) | 0.847 µM (active) | –
11 | CN/N=C(\C(=O)Nc1ccc([N+](=O)[O-])cc1[N+](=O)[O-])C1NC(=O)NC1=O (stereo not drawn) | > 100 µM (inactive) | > 100 µM (inactive) | > 100 µM (inactive) | > 100 µM (inactive) | 32.2 µM (inactive) | > 100 µM (inactive) | > 100 µM (inactive) | > 100 µM (inactive) | > 100 µM (inactive) | > 100 µM (inactive) | > 100 µM (inactive) | > 100 µM (inactive) | > 100 µM (inactive) | > 100 µM (inactive) | > 100 µM (inactive) | 38.1 µM (inactive) | – | – | – | –
12 | NC(=O)NO [HYDROXYUREA] | 1850 µM (inactive) | 597 µM (inactive) | 507 µM (inactive) | 50.4 µM (inactive) | 137 µM (inactive) | 217 µM (inactive) | 679 µM (inactive) | 1170 µM (inactive) | 601 µM (inactive) | 857 µM (inactive) | 877 µM (inactive) | 313 µM (inactive) | 817 µM (inactive) | 277 µM (inactive) | 1740 µM (inactive) | 700 µM (inactive) | 1490 µM (inactive) | 1940 µM (inactive) | 1010 µM (inactive) | 390 µM (inactive)
